One block for each compound: values may come before it.
Key:
[1] = tested on: patients with solid tumors; test: Maximum change of platelet and neutrophil count versus GDF-15 fold change in patients with solid tumors receiving compound of formula I; assay type: in vivo, human; details: regimen 1A (q3w) 12.5-350 mg or regimen 1B 120 mg
Description: Maximum change of platelet count (FIG. 7) and neutrophil count (FIG. 8) and the GDF-15 values were determined for patients with solid tumors receiving compound of formula I, i.e. (S)-5-(5-Chloro-1-methyl-2-oxo-1,2-dihydro-pyridin-3-yl)-6-(4-chloro-phenyl)-2-(2,4-dimethoxy-pyrimidin-5-yl)-1-isopropyl-5,6-dihydro-1H-pyrrolo[3,4-d]imidazol-4-one, on the first day of a three week cycle (herein also referred to as regimen 1A or q3w) in doses of 12.5 mg (A), 25 mg (B), 50 mg (C), 100 mg (D), 200 mg (E), 250 mg (F), 350 mg(G) or on the first and eighth day of a 4 week cycle (herein also referred to as regimen 1B) in a dose of 120 mg (I). The left graphs show the maximum platelet count change vs. GDF-15 fold change, the GDF-15 being measured on day 1 of the first cycle (C1D1). The right graphs show the maximum platelet count change vs. GDF-15 fold change.
The platelet/neutrophil count was determined before receipt of first dose (baseline) and on day 1, 7 and 15 of the first and second cycle for regimen 1A (A-G) or on day 1, 8, 14, 22 of the first and second cycle for regimen 1B (I) and the maximum platelet change value in comparison to the baseline was selected. The “Change of platelet/neutrophile counts” value is calculated as post-baseline value minus baseline value and given in number of platelets/neutrophils per microliter of blood. […]

patients = test: Clinical analysis of serum GDF-15 (ELISA) versus platelet counts in patients treated with Compound A; assay type: in vivo, human; details: 21 patients, continuous three times weekly oral administration; preliminary analysis (FIG. 3)
Description: Patients were treated with (5)-1-(4-Chloro-phenyl)-7-isopropoxy-6-methoxy-2-(4-{methyl-[4-(4-methyl-3-oxo-piperazin-1-yl)-trans-cyclohexylmethyl]-amino}-phenyl)-1,4-dihydro-2H-isoquinolin-3-one (Compound A). Dose range was from 10 to 500 mg three times a week (3QW) with continuous or 2 week on 1 week off dosing regimen. Serum samples were collected from each subject at pre-dose and from 0.5 to 6 h post-dose on the first treatment day.
The serum level of GDF-15 expression was measured using enzyme-linked immunosorbent assay (ELISA; R&D Systems kit DGD150).
Clinical data (including platelet counts) were collected from all patients during the course of the treatment period.
Maximum observation period was 448 days on available platelet data.
A preliminary data analysis of (S)-1-(4-Chloro-phenyl)-7-isopropoxy-6-methoxy-2-(4-{methyl-[4-(4-methyl-3-oxo-piperazin-1-yl)-trans-cyclohexylmethyl]-amino}-phenyl)-1,4-dihydro-2H-isoquinolin-3-one effect on GDF-15 and platelet counts for 21 patients treated on a continuous three times weekly oral administration of (S)-1-(4-Chloro-phenyl)-7-isopropoxy-6-methoxy-2-(4-{methyl-[4-(4-methyl-3-oxo-piperazin-1-yl)-trans-cyclohexylmethyl]-amino}-phenyl)-1,4-dihydro-2H-isoquinolin-3-one was conducted. The conducted data analysis is represented in a plot on FIG. 3. In this plot, each point represents an individual patient. […]

[2] = tested on: patients with liposarcomas; details: cited from earlier work
animal model = details: cited from earlier work
thrombopoesis = details: previous studies; cited from earlier work

correlation of GDF-15 increase with platelet count change ([1]; seen already for GDF-15 C1D1 24 h post-dose (FIG. 7)): correlates with a decrease
correlation of GDF-15 increase with neutrophil count change ([1]; seen already for GDF-15 C1D1 24 h post-dose (FIG. 8)): correlates with a decrease
SMILES: COc1ncc(-c2nc3c(n2C(C)C)[C@H](c2ccc(Cl)cc2)N(c2cc(Cl)cn(C)c2=O)C3=O)c(OC)n1 [compound of formula I, (S)-5-(5-Chloro-1-methyl-2-oxo-1,2-dihydro-pyridin-3-yl)-6-(4-chloro-phenyl)-2-(2,4-dimethoxy-pyrimidin-5-yl)-1-isopropyl-5,6-dihydro-1H-pyrrolo[3,4-d]imidazol-4-one]

cycle 1 day 1 GDF-15 increase from baseline associated with a higher occurrence of platelet counts dropping below 150 G/L (grade 1 thrombocytopenia CTCAE V4) (patients): more than 25%
SMILES: COc1cc2c(cc1OC(C)C)[C@H](c1ccc(Cl)cc1)N(c1ccc(N(C)C[C@H]3CC[C@H](N4CCN(C)C(=O)C4)CC3)cc1)C(=O)C2 [Compound A, (S)-1-(4-Chloro-phenyl)-7-isopropoxy-6-methoxy-2-(4-{methyl-[4-(4-methyl-3-oxo-piperazin-1-yl)-trans-cyclohexylmethyl]-amino}-phenyl)-1,4-dihydro-2H-isoquinolin-3-one]

SMILES: CCOc1cc(C(C)(C)C)ccc1C1=N[C@@](C)(c2ccc(Cl)cc2)[C@@](C)(c2ccc(Cl)cc2)N1C(=O)N1CCN(CCCS(C)(=O)=O)CC1 [RG7112]
major dose-limiting toxicity ([2]; RG7112 administration): thrombocytopenia
patients with induced thrombocytopenia ([2]; single-agent RG-7112, patients with liposarcomas): 40 % of patients
time course of drug-induced thrombocytopenia (animal model): occurred rather late during the treatment period and persisted after drug discontinuation
effect on thrombopoesis (thrombopoesis): impairs thrombopoesis
